The subject of data set [1] is T1, CCA2 (tRNA nucleotidyltransferase 2, Q/N-rich) (Dictyostelium discoideum).
T1 sequence: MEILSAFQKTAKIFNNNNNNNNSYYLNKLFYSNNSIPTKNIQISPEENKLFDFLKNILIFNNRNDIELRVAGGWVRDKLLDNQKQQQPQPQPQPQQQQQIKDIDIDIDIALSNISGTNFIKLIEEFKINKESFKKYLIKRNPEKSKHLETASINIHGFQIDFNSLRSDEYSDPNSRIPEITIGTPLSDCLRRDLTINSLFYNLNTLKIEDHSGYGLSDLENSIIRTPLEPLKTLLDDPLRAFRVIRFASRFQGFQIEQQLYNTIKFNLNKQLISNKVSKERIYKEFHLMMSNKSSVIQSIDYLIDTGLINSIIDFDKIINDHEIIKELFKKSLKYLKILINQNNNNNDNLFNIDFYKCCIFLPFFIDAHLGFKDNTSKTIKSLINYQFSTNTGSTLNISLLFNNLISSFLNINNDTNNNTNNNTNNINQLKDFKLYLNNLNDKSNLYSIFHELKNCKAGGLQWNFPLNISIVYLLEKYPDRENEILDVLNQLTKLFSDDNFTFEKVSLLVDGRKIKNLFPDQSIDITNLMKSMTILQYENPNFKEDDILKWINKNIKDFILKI
In words: EMSA. The conditions noted are these: 6 mM Mg2+, EMSA: HEPES/KOH pH 7.6 (concentration not stated), 30 mM KCl, 6 mM MgCl2, 20 C, 10 min, 0.5 pmol tRNA, 0-5 uM enzyme, 5% native PAA gel, n=3. (A gel shift assay detects complexes by their altered migration in electrophoresis.)

Another data set deals with T2, CCA1 (Dictyostelium discoideum, UniProt Q54BQ2).
T2 construct: gene DDB_G0293504; full-length codon-optimized ORF, C-terminal His tag, pET28b(+), E. coli BL21(DE3) delta-cca
T2 sequence (Q54BQ2 1-558): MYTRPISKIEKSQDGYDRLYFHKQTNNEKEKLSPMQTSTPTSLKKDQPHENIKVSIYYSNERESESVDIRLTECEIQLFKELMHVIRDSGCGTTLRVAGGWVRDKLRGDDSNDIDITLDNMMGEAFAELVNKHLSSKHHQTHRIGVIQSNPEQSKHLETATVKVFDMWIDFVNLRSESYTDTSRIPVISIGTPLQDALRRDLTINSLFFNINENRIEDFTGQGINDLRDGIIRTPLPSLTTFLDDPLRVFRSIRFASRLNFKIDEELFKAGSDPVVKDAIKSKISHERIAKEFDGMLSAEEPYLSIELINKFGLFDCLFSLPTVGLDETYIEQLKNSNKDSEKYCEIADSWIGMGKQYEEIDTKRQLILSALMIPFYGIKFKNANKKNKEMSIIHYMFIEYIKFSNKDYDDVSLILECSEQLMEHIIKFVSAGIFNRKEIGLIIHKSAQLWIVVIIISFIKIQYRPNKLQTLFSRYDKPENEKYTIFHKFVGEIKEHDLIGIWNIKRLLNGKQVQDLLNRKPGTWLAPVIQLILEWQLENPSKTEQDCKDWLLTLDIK
In words: nucleotide binding assay (supplement).

In another data set the target is T3, CCA2 (Dictyostelium discoideum, UniProt Q55BE1).
T3 construct: gene DDB_G0271378; full-length codon-optimized ORF, C-terminal His tag, pET28b(+), E. coli BL21(DE3) delta-cca; Q/N-rich
T3 sequence (Q55BE1 1-542): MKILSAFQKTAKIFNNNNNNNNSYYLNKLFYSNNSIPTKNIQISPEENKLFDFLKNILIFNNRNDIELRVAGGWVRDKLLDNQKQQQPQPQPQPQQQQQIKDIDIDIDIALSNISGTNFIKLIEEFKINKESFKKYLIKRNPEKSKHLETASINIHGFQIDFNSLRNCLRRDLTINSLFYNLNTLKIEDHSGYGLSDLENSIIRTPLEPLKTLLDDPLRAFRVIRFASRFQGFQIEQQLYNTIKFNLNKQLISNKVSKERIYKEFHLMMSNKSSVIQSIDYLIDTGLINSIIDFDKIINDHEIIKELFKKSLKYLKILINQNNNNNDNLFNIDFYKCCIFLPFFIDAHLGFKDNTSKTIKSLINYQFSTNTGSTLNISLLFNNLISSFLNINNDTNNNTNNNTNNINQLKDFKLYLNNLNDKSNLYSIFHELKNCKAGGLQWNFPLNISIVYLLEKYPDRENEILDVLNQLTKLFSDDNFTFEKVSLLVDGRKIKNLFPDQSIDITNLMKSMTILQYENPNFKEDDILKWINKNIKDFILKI
In words: nucleotide binding assay (supplement).

Turning to “tRNAPhe-CC in vitro transcript (yeast per Fig. 5 legend)”, in data set [1], the Kd came to 2300 nM.
In data set [1] (tRNA pool, native tRNA modifications (isolated from cells)), total in vivo tRNA-CC pool displayed a Kd of 1700 nM.
In the case of `Nc1ncnc2c1ncn2[C@@H]1O[C@H](COP(=O)(O)OP(=O)(O)OP(=O)(O)O)[C@@H](O)[C@H]1O` [ATP], the “nucleotide binding assay (supplement)” value on CCA1 is “when incubated with CTP or ATP alone, both enzymes showed an almost identical binding behavior”; at CCA2 it was “when incubated with CTP or ATP alone, both enzymes showed an almost identical binding behavior”.
For the compound `Nc1ccn([C@@H]2O[C@H](COP(=O)(O)OP(=O)(O)OP(=O)(O)O)[C@@H](O)[C@H]2O)c(=O)n1` [CTP], the “nucleotide binding assay (supplement)” value is “when incubated with CTP or ATP alone, both enzymes showed an almost identical binding behavior” at CCA1 and “when incubated with CTP or ATP alone, both enzymes showed an almost identical binding behavior” on CCA2.

The Kd is the equilibrium constant for the complex coming apart. High values mean weaker binding, low ones tighter binding.
